Test results published in ChEMBL document CHEMBL3885861, “Open TG-GATES”.

Species: Rattus norvegicus
Assay: Open TG-GATES - Regimen: Single
Type: toxicity, organism-based, Sprague-Dawley
Design: regimen Single, gender Male, age 6 weeks
Details: in vivo, po, route gavage; for Hb / Ht / Lym / MCHC / MCV / Mono / Neu / PT / Plat / RBC / Ret / WBC / APTT / Bas / Eos / Fbg: tissue Blood; for KIDNEY_L / KIDNEY_R / KIDNEY_TOTAL: tissue Kidney; for LIVER: tissue Liver; for ALP / ALT / AST / BUN / CRE / Ca / Cl / DBIL / IP / LDH / Na / PL / RALB / TBIL / TC / TG / TP / gamma-GTP / GLC: tissue Plasma
[1] = 120 mg/kg, 3 h, dose level Middle

CC(C)N(CCC(C(N)=O)(c1ccccc1)c1ccccn1)C(C)C (centres undefined) [DISOPYRAMIDE] gave a Hb (40 mg/kg, 3 h, dose level Low) of 13 g/dL, a Ht (40 mg/kg, 3 h, dose level Low) of 40.8% and a Lym (40 mg/kg, 3 h, dose level Low) of 79.6%. It also gave an MCHC (40 mg/kg, 3 h, dose level Low) of 32%, an MCV (40 mg/kg, 3 h, dose level Low) of 64.4 fL and a Mono (40 mg/kg, 3 h, dose level Low) of 2.6%. For the same compound, the Neu (40 mg/kg, 3 h, dose level Low) was 15.8%, the PT (40 mg/kg, 3 h, dose level Low) was 15.5 s and the Plat (40 mg/kg, 3 h, dose level Low) was 122.4 x10_4/uL. The RBC (40 mg/kg, 3 h, dose level Low) was 633.6 x10_4/ul, the Ret (40 mg/kg, 3 h, dose level Low) was 8.2% and the WBC (40 mg/kg, 3 h, dose level Low) was 102.4 x10_2/uL. It also gave a KIDNEY_L (40 mg/kg, 3 h, dose level Low) of 0.9 g, a KIDNEY_R (40 mg/kg, 3 h, dose level Low) of 1 g and a KIDNEY_TOTAL (40 mg/kg, 3 h, dose level Low) of 1.9 g. For the same compound, the LIVER (40 mg/kg, 3 h, dose level Low) was 9.9 g, the ALP (40 mg/kg, 3 h, dose level Low) was 1280.4 IU/L and the ALT (40 mg/kg, 3 h, dose level Low) was 48.2 IU/L. It also gave an AST (40 mg/kg, 3 h, dose level Low) of 73.2 IU/L, a BUN (40 mg/kg, 3 h, dose level Low) of 10.6 mg/dL and a CRE (40 mg/kg, 3 h, dose level Low) of 0.2 mg/dL. It also gave a Ca (40 mg/kg, 3 h, dose level Low) of 10.7 mg/dL, a Cl (40 mg/kg, 3 h, dose level Low) of 107.4 meq/L and a DBIL (40 mg/kg, 3 h, dose level Low) of 0 mg/dL. It also gave an IP (40 mg/kg, 3 h, dose level Low) of 8.5 mg/dL, an LDH (40 mg/kg, 3 h, dose level Low) of 163.4 IU/L and a Na (40 mg/kg, 3 h, dose level Low) of 140.8 meq/L. For the same compound, the PL (40 mg/kg, 3 h, dose level Low) was 143.2 mg/dL, the RALB (40 mg/kg, 3 h, dose level Low) was 3 g/dL and the TBIL (40 mg/kg, 3 h, dose level Low) was 0.002 mg/dL. It also gave a TC (40 mg/kg, 3 h, dose level Low) of 82.4 mg/dL, a TG (40 mg/kg, 3 h, dose level Low) of 60.6 mg/dL and a TP (40 mg/kg, 3 h, dose level Low) of 5.5 g/dL. For the same compound, the gamma-GTP (40 mg/kg, 3 h, dose level Low) was 1.6 IU/L, the TERMINAL_BW (40 mg/kg, 6 h, dose level Low) was 212.3 g and the APTT (40 mg/kg, 6 h, dose level Low) was 21.2 s. The Bas (40 mg/kg, 6 h, dose level Low) was 0%, the Eos (40 mg/kg, 6 h, dose level Low) was 0.6% and the Fbg (40 mg/kg, 6 h, dose level Low) was 307.6 mg/dL. For the same compound, the Hb (40 mg/kg, 6 h, dose level Low) was 13 g/dL, the Ht (40 mg/kg, 6 h, dose level Low) was 40.9% and the Lym (40 mg/kg, 6 h, dose level Low) was 80.6%. The MCHC (40 mg/kg, 6 h, dose level Low) was 31.8%, the MCV (40 mg/kg, 6 h, dose level Low) was 64.3 fL and the Mono (40 mg/kg, 6 h, dose level Low) was 2.4%. It also gave a Neu (40 mg/kg, 6 h, dose level Low) of 15.8%, a PT (40 mg/kg, 6 h, dose level Low) of 15.5 s and a Plat (40 mg/kg, 6 h, dose level Low) of 119.9 x10_4/uL. The RBC (40 mg/kg, 6 h, dose level Low) was 635.8 x10_4/ul, the Ret (40 mg/kg, 6 h, dose level Low) was 8.1% and the WBC (40 mg/kg, 6 h, dose level Low) was 80.4 x10_2/uL. The KIDNEY_L (40 mg/kg, 6 h, dose level Low) was 1 g, the KIDNEY_R (40 mg/kg, 6 h, dose level Low) was 1 g and the KIDNEY_TOTAL (40 mg/kg, 6 h, dose level Low) was 2 g. The LIVER (40 mg/kg, 6 h, dose level Low) was 9.3 g, the ALP (40 mg/kg, 6 h, dose level Low) was 1258.6 IU/L and the ALT (40 mg/kg, 6 h, dose level Low) was 40 IU/L. It also gave an AST (40 mg/kg, 6 h, dose level Low) of 71.2 IU/L, a BUN (40 mg/kg, 6 h, dose level Low) of 12.4 mg/dL and a CRE (40 mg/kg, 6 h, dose level Low) of 0.1 mg/dL. It also gave a Ca (40 mg/kg, 6 h, dose level Low) of 10.8 mg/dL, a Cl (40 mg/kg, 6 h, dose level Low) of 106.2 meq/L and a DBIL (40 mg/kg, 6 h, dose level Low) of 0 mg/dL. The GLC (40 mg/kg, 6 h, dose level Low) was 168.6 mg/dL, the IP (40 mg/kg, 6 h, dose level Low) was 9.5 mg/dL and the LDH (40 mg/kg, 6 h, dose level Low) was 161.8 IU/L. It also gave a Na (40 mg/kg, 6 h, dose level Low) of 140 meq/L, a PL (40 mg/kg, 6 h, dose level Low) of 132.2 mg/dL and an RALB (40 mg/kg, 6 h, dose level Low) of 3 g/dL. For the same compound, the TBIL (40 mg/kg, 6 h, dose level Low) was 0.008 mg/dL, the TC (40 mg/kg, 6 h, dose level Low) was 75 mg/dL and the TG (40 mg/kg, 6 h, dose level Low) was 75.8 mg/dL. The TP (40 mg/kg, 6 h, dose level Low) was 5.4 g/dL, the gamma-GTP (40 mg/kg, 6 h, dose level Low) was 1 IU/L and the TERMINAL_BW (40 mg/kg, 9 h, dose level Low) was 203.3 g. The APTT (40 mg/kg, 9 h, dose level Low) was 21.6 s, the Bas (40 mg/kg, 9 h, dose level Low) was 0% and the Eos (40 mg/kg, 9 h, dose level Low) was 0.6%. For the same compound, the Fbg (40 mg/kg, 9 h, dose level Low) was 328.4 mg/dL, the Hb (40 mg/kg, 9 h, dose level Low) was 13 g/dL and the Ht (40 mg/kg, 9 h, dose level Low) was 40.3%. It also gave a Lym (40 mg/kg, 9 h, dose level Low) of 77.6%, an MCHC (40 mg/kg, 9 h, dose level Low) of 32.3% and an MCV (40 mg/kg, 9 h, dose level Low) of 64 fL. For the same compound, the Mono (40 mg/kg, 9 h, dose level Low) was 2%, the PT (40 mg/kg, 9 h, dose level Low) was 15.6 s and the Plat (40 mg/kg, 9 h, dose level Low) was 124.6 x10_4/uL. For the same compound, the RBC (40 mg/kg, 9 h, dose level Low) was 630.4 x10_4/ul, the Ret (40 mg/kg, 9 h, dose level Low) was 7.9% and the WBC (40 mg/kg, 9 h, dose level Low) was 88.7 x10_2/uL. For the same compound, the KIDNEY_L (40 mg/kg, 9 h, dose level Low) was 0.9 g, the KIDNEY_R (40 mg/kg, 9 h, dose level Low) was 1 g and the KIDNEY_TOTAL (40 mg/kg, 9 h, dose level Low) was 1.9 g. It also gave an LIVER (40 mg/kg, 9 h, dose level Low) of 8.7 g, an ALP (40 mg/kg, 9 h, dose level Low) of 1420.4 IU/L and an ALT (40 mg/kg, 9 h, dose level Low) of 34.2 IU/L. For the same compound, the AST (40 mg/kg, 9 h, dose level Low) was 68.6 IU/L, the BUN (40 mg/kg, 9 h, dose level Low) was 12.4 mg/dL and the CRE (40 mg/kg, 9 h, dose level Low) was 0.1 mg/dL. It also gave a Ca (40 mg/kg, 9 h, dose level Low) of 10.8 mg/dL, a Cl (40 mg/kg, 9 h, dose level Low) of 107.2 meq/L and a DBIL (40 mg/kg, 9 h, dose level Low) of 0 mg/dL. For the same compound, the GLC (40 mg/kg, 9 h, dose level Low) was 169.6 mg/dL, the IP (40 mg/kg, 9 h, dose level Low) was 9.5 mg/dL and the LDH (40 mg/kg, 9 h, dose level Low) was 151.6 IU/L. It also gave a Na (40 mg/kg, 9 h, dose level Low) of 140.8 meq/L, a PL (40 mg/kg, 9 h, dose level Low) of 129.4 mg/dL and an RALB (40 mg/kg, 9 h, dose level Low) of 3.1 g/dL. The TBIL (40 mg/kg, 9 h, dose level Low) was 0.008 mg/dL, the TC (40 mg/kg, 9 h, dose level Low) was 75.4 mg/dL and the TG (40 mg/kg, 9 h, dose level Low) was 58.2 mg/dL. It also gave a TP (40 mg/kg, 9 h, dose level Low) of 5.5 g/dL, a gamma-GTP (40 mg/kg, 9 h, dose level Low) of 1.2 IU/L and a TERMINAL_BW (40 mg/kg, 24 h, dose level Low) of 217.8 g. It also gave an APTT (40 mg/kg, 24 h, dose level Low) of 22.7 s, a Bas (40 mg/kg, 24 h, dose level Low) of 0% and an Eos (40 mg/kg, 24 h, dose level Low) of 0.8%. It also gave a Fbg (40 mg/kg, 24 h, dose level Low) of 306 mg/dL, a Hb (40 mg/kg, 24 h, dose level Low) of 13.2 g/dL and a Ht (40 mg/kg, 24 h, dose level Low) of 40.2%. It also gave a Lym (40 mg/kg, 24 h, dose level Low) of 79.4%, an MCHC (40 mg/kg, 24 h, dose level Low) of 32.8% and an MCV (40 mg/kg, 24 h, dose level Low) of 64.5 fL. For the same compound, the Mono (40 mg/kg, 24 h, dose level Low) was 1.8%, the Neu (40 mg/kg, 24 h, dose level Low) was 17.2% and the PT (40 mg/kg, 24 h, dose level Low) was 15.3 s. For the same compound, the Plat (40 mg/kg, 24 h, dose level Low) was 115.3 x10_4/uL, the RBC (40 mg/kg, 24 h, dose level Low) was 623 x10_4/ul and the Ret (40 mg/kg, 24 h, dose level Low) was 7%. For the same compound, the WBC (40 mg/kg, 24 h, dose level Low) was 91.1 x10_2/uL, the KIDNEY_L (40 mg/kg, 24 h, dose level Low) was 0.9 g and the KIDNEY_R (40 mg/kg, 24 h, dose level Low) was 1 g. For the same compound, the KIDNEY_TOTAL (40 mg/kg, 24 h, dose level Low) was 1.9 g, the LIVER (40 mg/kg, 24 h, dose level Low) was 10.5 g and the ALP (40 mg/kg, 24 h, dose level Low) was 1700.4 IU/L. For the same compound, the ALT (40 mg/kg, 24 h, dose level Low) was 47.2 IU/L, the AST (40 mg/kg, 24 h, dose level Low) was 71.8 IU/L and the BUN (40 mg/kg, 24 h, dose level Low) was 15.4 mg/dL. It also gave a CRE (40 mg/kg, 24 h, dose level Low) of 0.1 mg/dL, a Ca (40 mg/kg, 24 h, dose level Low) of 10.6 mg/dL and a Cl (40 mg/kg, 24 h, dose level Low) of 105.6 meq/L. It also gave a DBIL (40 mg/kg, 24 h, dose level Low) of 0 mg/dL, an IP (40 mg/kg, 24 h, dose level Low) of 8 mg/dL and an LDH (40 mg/kg, 24 h, dose level Low) of 156.2 IU/L. For the same compound, the Na (40 mg/kg, 24 h, dose level Low) was 142.8 meq/L, the PL (40 mg/kg, 24 h, dose level Low) was 147 mg/dL and the RALB (40 mg/kg, 24 h, dose level Low) was 3 g/dL. It also gave a TBIL (40 mg/kg, 24 h, dose level Low) of 0.002 mg/dL, a TC (40 mg/kg, 24 h, dose level Low) of 76.4 mg/dL and a TG (40 mg/kg, 24 h, dose level Low) of 96 mg/dL. For the same compound, the TP (40 mg/kg, 24 h, dose level Low) was 5.4 g/dL, the gamma-GTP (40 mg/kg, 24 h, dose level Low) was 1.6 IU/L and the TERMINAL_BW [1] was 205.2 g. It also gave an APTT [1] of 23.3 s.
